Source: the NIST ThermoML archive (doi:10.1021/je7000446)
± gives the expanded uncertainty stated by the source.

Test: relative permittivity at various frequencies (dimensionless)
Details: Fluid (supercritical or subcritical phases), Frequency=0.06 MHz, Parallel plate capacitor

CC(F)(F)F [1,1,1-trifluoroethane]
Details | relative permittivity
302.8 K, 1600 kPa | 9.28 ± 0.69
302.8 K, 4000 kPa | 9.44 ± 0.7
302.8 K, 6200 kPa | 9.56 ± 0.71
302.8 K, 8200 kPa | 9.67 ± 0.72
302.8 K, 10200 kPa | 9.77 ± 0.72
302.8 K, 12300 kPa | 9.86 ± 0.73
302.8 K, 16200 kPa | 10.02 ± 0.74
302.8 K, 18500 kPa | 10.1 ± 0.75
302.8 K, 20100 kPa | 10.16 ± 0.75
302.8 K, 22000 kPa | 10.24 ± 0.76
302.8 K, 24200 kPa | 10.31 ± 0.76
302.8 K, 26300 kPa | 10.38 ± 0.77
302.8 K, 28300 kPa | 10.44 ± 0.77
302.8 K, 30700 kPa | 10.51 ± 0.78
313.2 K, 1700 kPa | 8.61 ± 0.64
313.2 K, 2700 kPa | 8.69 ± 0.64
313.2 K, 4200 kPa | 8.82 ± 0.65
313.2 K, 6300 kPa | 8.96 ± 0.66
313.2 K, 8000 kPa | 9.05 ± 0.67
313.2 K, 8800 kPa | 9.12 ± 0.68
313.2 K, 14200 kPa | 9.39 ± 0.7
313.2 K, 16300 kPa | 9.49 ± 0.7
313.2 K, 18400 kPa | 9.58 ± 0.71
313.2 K, 20400 kPa | 9.67 ± 0.72
313.2 K, 21800 kPa | 9.73 ± 0.72
313.2 K, 24200 kPa | 9.81 ± 0.73
313.2 K, 26100 kPa | 9.87 ± 0.73
313.2 K, 28400 kPa | 9.9 ± 0.73
313.2 K, 30300 kPa | 9.95 ± 0.74
313.2 K, 31600 kPa | 9.98 ± 0.74
322.8 K, 2400 kPa | 8.08 ± 0.6
322.8 K, 4500 kPa | 8.27 ± 0.61
322.8 K, 6500 kPa | 8.43 ± 0.62
322.8 K, 8400 kPa | 8.56 ± 0.63
322.8 K, 10300 kPa | 8.68 ± 0.64
322.8 K, 12100 kPa | 8.79 ± 0.65
322.8 K, 14300 kPa | 8.89 ± 0.66
322.8 K, 16300 kPa | 8.98 ± 0.67
322.8 K, 18300 kPa | 9.07 ± 0.67
322.8 K, 20200 kPa | 9.16 ± 0.68
322.8 K, 22300 kPa | 9.24 ± 0.68
322.8 K, 24400 kPa | 9.32 ± 0.69
322.8 K, 26200 kPa | 9.38 ± 0.69
322.8 K, 27900 kPa | 9.43 ± 0.7
322.8 K, 28800 kPa | 9.46 ± 0.7
322.8 K, 31000 kPa | 9.49 ± 0.7
333 K, 1500 kPa | 7.35 ± 0.55
333 K, 2600 kPa | 7.45 ± 0.55
333 K, 4400 kPa | 7.66 ± 0.57
333 K, 6300 kPa | 7.84 ± 0.58
333 K, 8400 kPa | 8.01 ± 0.59
333 K, 10300 kPa | 8.14 ± 0.6
333 K, 12400 kPa | 8.26 ± 0.61
333 K, 14400 kPa | 8.38 ± 0.62
333 K, 16300 kPa | 8.48 ± 0.63
333 K, 18300 kPa | 8.58 ± 0.64
333 K, 20100 kPa | 8.66 ± 0.64
333 K, 21100 kPa | 8.7 ± 0.64
333 K, 22400 kPa | 8.73 ± 0.65
333 K, 24100 kPa | 8.8 ± 0.65
333 K, 26000 kPa | 8.87 ± 0.66
333 K, 27400 kPa | 8.93 ± 0.66
333 K, 29300 kPa | 8.99 ± 0.67
343.4 K, 2200 kPa | 6.66 ± 0.5
343.4 K, 3000 kPa | 6.79 ± 0.5
343.4 K, 4000 kPa | 6.95 ± 0.52
343.4 K, 5000 kPa | 7.06 ± 0.52
343.4 K, 6200 kPa | 7.2 ± 0.53
343.4 K, 8100 kPa | 7.4 ± 0.55
343.4 K, 9200 kPa | 7.47 ± 0.55
343.4 K, 10400 kPa | 7.58 ± 0.56
343.4 K, 12300 kPa | 7.71 ± 0.57
343.4 K, 14200 kPa | 7.83 ± 0.58
343.4 K, 16200 kPa | 7.94 ± 0.59
343.4 K, 18200 kPa | 8.04 ± 0.6
343.4 K, 20300 kPa | 8.14 ± 0.6
343.4 K, 22200 kPa | 8.22 ± 0.61
343.4 K, 24200 kPa | 8.31 ± 0.62
343.4 K, 26000 kPa | 8.37 ± 0.62
343.4 K, 28000 kPa | 8.45 ± 0.63
343.4 K, 29500 kPa | 8.5 ± 0.63
353.4 K, 2600 kPa | 6.05 ± 0.45
353.4 K, 4600 kPa | 6.39 ± 0.47
353.4 K, 6400 kPa | 6.65 ± 0.49
353.4 K, 8100 kPa | 6.84 ± 0.51
353.4 K, 10000 kPa | 6.99 ± 0.52
353.4 K, 12200 kPa | 7.15 ± 0.53
353.4 K, 14400 kPa | 7.29 ± 0.54
353.4 K, 16400 kPa | 7.41 ± 0.55
353.4 K, 18300 kPa | 7.52 ± 0.56
353.4 K, 20200 kPa | 7.6 ± 0.56
353.4 K, 22200 kPa | 7.7 ± 0.57
353.4 K, 24400 kPa | 7.78 ± 0.58
353.4 K, 26400 kPa | 7.86 ± 0.58
353.4 K, 28600 kPa | 7.95 ± 0.59
363.8 K, 3600 kPa | 5.46 ± 0.41
363.8 K, 4300 kPa | 5.73 ± 0.43
363.8 K, 6100 kPa | 6.09 ± 0.45
363.8 K, 8200 kPa | 6.37 ± 0.47
363.8 K, 10200 kPa | 6.57 ± 0.49
363.8 K, 12200 kPa | 6.74 ± 0.5
363.8 K, 14200 kPa | 6.88 ± 0.51
363.8 K, 16200 kPa | 7.01 ± 0.52
363.8 K, 18200 kPa | 7.12 ± 0.53
363.8 K, 20300 kPa | 7.22 ± 0.53
363.8 K, 22200 kPa | 7.31 ± 0.54
363.8 K, 24300 kPa | 7.41 ± 0.55
363.8 K, 26000 kPa | 7.48 ± 0.55
363.8 K, 28200 kPa | 7.56 ± 0.56
363.8 K, 30000 kPa | 7.63 ± 0.57
363.8 K, 31200 kPa | 7.66 ± 0.57
372.9 K, 4000 kPa | 4.66 ± 0.36
372.9 K, 6300 kPa | 5.55 ± 0.42
372.9 K, 8200 kPa | 5.86 ± 0.44
372.9 K, 10100 kPa | 6.08 ± 0.45
372.9 K, 12200 kPa | 6.27 ± 0.46
372.9 K, 14200 kPa | 6.42 ± 0.48
372.9 K, 16000 kPa | 6.53 ± 0.48
372.9 K, 18000 kPa | 6.65 ± 0.49
372.9 K, 20200 kPa | 6.75 ± 0.5
372.9 K, 22200 kPa | 6.85 ± 0.51
372.9 K, 24200 kPa | 6.94 ± 0.51
372.9 K, 26200 kPa | 7.02 ± 0.52
372.9 K, 28100 kPa | 7.09 ± 0.53
372.9 K, 29800 kPa | 7.15 ± 0.53
372.9 K, 30700 kPa | 7.18 ± 0.53
383.1 K, 4800 kPa | 3.97 ± 0.33
383.1 K, 5800 kPa | 4.7 ± 0.37
383.1 K, 6800 kPa | 5.06 ± 0.38
383.1 K, 8200 kPa | 5.35 ± 0.4
383.1 K, 10400 kPa | 5.65 ± 0.42
383.1 K, 12000 kPa | 5.8 ± 0.43
383.1 K, 14200 kPa | 6.09 ± 0.45
383.1 K, 16200 kPa | 6.24 ± 0.46
383.1 K, 18400 kPa | 6.38 ± 0.47
383.1 K, 20000 kPa | 6.48 ± 0.48

COC(F)(F)C(F)(F)F [methyl pentafluoroethyl ether]
Details | relative permittivity
312.9 K, 1500 kPa | 6.94 ± 0.51
312.9 K, 3200 kPa | 7 ± 0.52
312.9 K, 6100 kPa | 7.08 ± 0.52
312.9 K, 8300 kPa | 7.14 ± 0.53
312.9 K, 10400 kPa | 7.2 ± 0.53
312.9 K, 12500 kPa | 7.25 ± 0.54
312.9 K, 14400 kPa | 7.29 ± 0.54
312.9 K, 16500 kPa | 7.34 ± 0.54
312.9 K, 18300 kPa | 7.37 ± 0.55
312.9 K, 26200 kPa | 7.51 ± 0.56
312.9 K, 27800 kPa | 7.53 ± 0.56
318 K, 1500 kPa | 6.78 ± 0.5
318 K, 3200 kPa | 6.85 ± 0.51
318 K, 6300 kPa | 6.95 ± 0.51
318 K, 8300 kPa | 7.01 ± 0.52
318 K, 10400 kPa | 7.06 ± 0.52
318 K, 12400 kPa | 7.11 ± 0.53
318 K, 14100 kPa | 7.15 ± 0.53
318 K, 16400 kPa | 7.19 ± 0.53
318 K, 18300 kPa | 7.22 ± 0.53
318 K, 20400 kPa | 7.27 ± 0.54
318 K, 22200 kPa | 7.29 ± 0.54
318 K, 23800 kPa | 7.31 ± 0.54
323.4 K, 2000 kPa | 6.65 ± 0.49
323.4 K, 3200 kPa | 6.69 ± 0.5
323.4 K, 4400 kPa | 6.73 ± 0.5
323.4 K, 6600 kPa | 6.79 ± 0.5
323.4 K, 8300 kPa | 6.84 ± 0.51
323.4 K, 10100 kPa | 6.89 ± 0.51
323.4 K, 12200 kPa | 6.94 ± 0.51
323.4 K, 14000 kPa | 7 ± 0.52
323.4 K, 16000 kPa | 7.05 ± 0.52
323.4 K, 18000 kPa | 7.09 ± 0.52
323.4 K, 20000 kPa | 7.12 ± 0.53
323.4 K, 22200 kPa | 7.16 ± 0.53
323.4 K, 24400 kPa | 7.2 ± 0.53
323.4 K, 26300 kPa | 7.24 ± 0.54
323.4 K, 28400 kPa | 7.27 ± 0.54
